Legend:
tobacco budworm = test: foliar treated test against tobacco budworm on chick pea plants; format: in vivo, Heliothis virescens; settings: sprayed chick pea foliage, 96 hour exposure, dead plus moribund insects
Experimental: Certain compounds of formula I were tested against tobacco budworm on plant foliage. The foliar treated test against tobacco budworm were conducted in the following manner:
Nine-to-ten day-old chick pea plants (Cicer arietinum) were sprayed at 15 psi to runoff on both upper and lower leaf surfaces with solutions of test compound to provide application rates as high as 1000 ppm of test chemical. The solvent used to prepare the solutions of test compound was 10% acetone or methanol (v/v) and 0.1% of the surfactant octylphenoxypolyethoxyethanol in distilled water. Four replicates, each containing one chick pea plant, for each rate of application of test compound were sprayed. The treated plants were transferred to a hood where they were kept until the spray had dried.
The four chick pea plants for each replicate treated with test compound as described above were removed from their pots by cutting the stems just above the soil line. The excised leaves and stems from the four plants in each replicate were placed in individual 237 mL (8-ounce) paper cups, which contained a moistened filter paper. Five second-instar tobacco budworm (7 days old) were counted into each cup, taking care not to cause injury. An opaque plastic lid was placed on each cup, which was then held in a growth chamber for a 96 hour exposure period at 25° C. 50% relative humidity and photo-period of 12 hours light and 12 hours dark. At the end of the 96 hour exposure period the cups were opened, and the numbers of dead, moribund, and live insects were counted. Using the insect counts, the efficacy of the test compound was expressed in percent control. Percent control is derived from the total number of dead insects (TD) plus the total number of moribund insects (TM) as compared to the total number of insects (TI) in the test:
The condition of the test plants was also observed for phytotoxicity and for reduction of feeding damage as compared to an untreated control.

[1] = test system: tobacco budworm (Heliothis virescens [Fabricius]); test: surface-treated diet test against tobacco budworm; format: in vivo; settings: 0.25 millimolar on surface of diet, second instar larvae, five-day exposure; for Percent Growth Inhibition: insect weight relative to untreated controls
Text: The test compounds of formula I are identified by numbers that correspond to those in Table 1.

| SMILES | Percent Control of Tobacco Budworm in a Foliar Test (tobacco budworm; 10 ppm) | Percent Control of Tobacco Budworm in a Foliar Test (tobacco budworm; 30 ppm) | Percent Mortality [1] | Percent Growth Inhibition [1] |
| --- | --- | --- | --- | --- |
| FC(F)(F)c1nc2ccc(OCCCCOc3c(Cl)cc(OCC=C(Cl)Cl)cc3Cl)cc2o1 [Compound 6, 5-(3,3-dichloroprop-2-enyloxy)-1,3-dichloro-2-{4-[2-(trifluoromethyl)benzoxazol-6-yloxy]butoxy}benzene] | 70% | 95% | 100% | 100% |
| CC1(C)Oc2ccc(OCCCCOc3c(Cl)cc(OCC=C(Cl)Cl)cc3Cl)cc2O1 [Compound 4] | 15% | 55% |  |  |
| FC(F)(F)c1nc2ccc(OCCCOc3c(Cl)cc(OCC=C(Cl)Cl)cc3Cl)cc2o1 [Compound 3, 5-(3,3-dichloroprop-2-enyloxy)-1,3dichloro-2-{3-[2-(trifluoromethyl)benzoxazol-6-yloxy]propoxy}benzene] | 100% | 100% | 100% | 100% |
| Cc1nc2cc(OCCCCCOc3c(Cl)cc(OCC=C(Cl)Cl)cc3Cl)ccc2s1 [Compound 12, 5-(3,3-dichloroprop-2-enyloxy)-1,3-dichloro-2-[5-(2-methylbenzothiazol-5-yloxy)pentyloxy]benzene] | 15% |  | 100% | 100% |
